The record followed here is patent publication US20090156646A1, “PYRIDYLPHENOL COMPOUND AND USE THEREOF” (TAKEDA PHARMACEUTICAL COMPANY LIMITED, priority 2005, published 2009).

pIC50: −log10 of the molar value. Counter-ions that a name gives are not always drawn.

Series [1] has as its target T1, human metastin receptor hOT7T175 (Homo sapiens, UniProt Q969F8, L364H).
T1 construct: encoding the entire length of human metastin receptor hOT7T175; expressed in transfected cells; host or cells: CHO/dhFr- cells (ATCC #CRL-9096) stably transfected with pAKKO-hOT7T175; clone h175-16 was used as whole cells for FLIPR
The experiment in a line: FLIPR assay of metastin-induced change in intracellular calcium in h175-16 cells (antagonist activity). The conditions noted are these: human metastin (40-54) as ligand, Fluo-3 fluorescence. Type of series: cell-based. How it is done:
cDNA fragments (SEQ ID NO: 2) encoding the entire length of human metastin receptor hOT7T175 were incorporated into expression vector pAKKO1.11H to produce animal cell expression plasmids pAKKO-hOT7T175. CHO/dhFr-cells (ATCC, #CRL-9096) were seeded onto 6 cm culture dishes (Becton Dickinson) at a density of 0.3×10^6 cells/dish, and cultured in the conditions of 48 hours, 37° C. and 5% CO2. 5 μg pAKKO-hOT7T175 plasmid DNA was transfected to the resultant cells by a known method (described in Example 3 of WO 00/24890) using the Cellphect Transfection Kit (Amersham, #27-9268-01). The DNA-transfected cells were cultured in the Dulbecco's modified Eagle medium (DMEM) (Sigma, #D6046) containing 10% dialyzed FBS (Biowest, #S180D), 1× Non-Essential Amino Acid (Invitrogen, #11140-050) and 50 μg/ml Gentamycin (Invitrogen, #15750-060; and cell strains stably expressing the plasmid genes were selected. The obtained 41 clones were treated with the FLIPR assay (in accordance with the method described in Example 3 of WO 00/24890), and the reactivity to the human metastin […] (Nos. 40 to 54 of the human metastin sequence; Peptide Institute, Inc., #4389-v) was evaluated. In the end, h175 KB34 cell strains were selected. By substantially the same method, h175-16 cell strains were also produced.
The h175-16 cell strains prepared in Test Example 1 were seeded onto a 96-well plate (Corning, #3904) at 3×10^4 cell/well, and cultured for 24 hours on a CO2 incubator (cell seeding plate).
A calcium kit buffer containing 0.1% BSA [20 mM HEPES, 115 mM NaCl, 5.4 mM KCl, 0.8 mM MgCl2, 1.8 mM CaCl2, 13.8 mM D-glucose, pH 7.4, with an attached calcium kit produced by Dojin] was prepared and kept warm at 37° C. Then, the medium in the wells of the cell seeding plate was removed, and […] of the calcium kit buffer was added to each well. 50 μl 250 mM Probenecid (with an attached calcium kit produced by Dojin), 80 μl 5% Pluronic F-127 (with an attached calcium kit produced by Dojin) and 25 μl Fluo-3 AM (powder with an attached calcium kit produced by Dojin was dissolved in DMSO at 1 mg/ml) were added to the calcium kit buffer containing 5 ml 0.1% BSA (an amount for measuring one plate) to prepare a loading solution. 50 μl of the loading solution was added to each well to allow a reaction at 37° C. for 1 hour. Thus, Fluo-3 AM was loaded onto the cells. Then, the solution in each well was removed, and 100 μl of the calcium kit buffer containing 1.25 mM Probenecid and 0.1% BSA was added to each well.
50 μl of a test compound diluted with the calcium kit buffer containing 0.1% BSA was added to each well, and stirred by a plate shaker. A cell plate, and a ligand plate provided with human metastin (40-54) (AnyGen) diluted to 400 μM with the calcium kit buffer containing 0.1% BSA, were set to the Fluorometric Imaging Plate Reader (FLIPR, Molecular Devices), and […] was added to each well using an automatic divider in the FLIPR. A change in the calcium concentration in the cells, which corresponded to the ligand response, was measured by a CCD camera in the FLIPR as a change in the amount of fluorescence of Fluo-3. The obtained change in the amount of fluorescence was plotted against the concentration of the test compound, and the compound concentration at which 50% of the change in the amount of fluorescence (i.e., IC50 value) was inhibited was calculated.
On the technique in general: A change in cytosolic calcium serves as a functional read-out for many receptors and channels.

Series [2] has as its target T1, human metastin receptor hOT7T175. Nature of the series: binding inhibiting activity: 125I-metastin (40-54) binding to cell membrane fraction of h175 KB34 cells. The following applies: room temperature 60 minutes, read-out: binding inhibiting activity, represented by the IC50 value. In short, it runs like this: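 The assay buffer (pH 7.4 Tris with magnesium acetate, EGTA and a protease-inhibitor cocktail) was used either plain or supplemented with 1 mg/ml BSA. The radioligand was 125I-labelled human metastin (40-54). The receptor source was a 250-fold diluted membrane fraction of the stable CHO/dhfr− line h175 KB34.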

T1 sequence (Q969F8 whole entry L364H): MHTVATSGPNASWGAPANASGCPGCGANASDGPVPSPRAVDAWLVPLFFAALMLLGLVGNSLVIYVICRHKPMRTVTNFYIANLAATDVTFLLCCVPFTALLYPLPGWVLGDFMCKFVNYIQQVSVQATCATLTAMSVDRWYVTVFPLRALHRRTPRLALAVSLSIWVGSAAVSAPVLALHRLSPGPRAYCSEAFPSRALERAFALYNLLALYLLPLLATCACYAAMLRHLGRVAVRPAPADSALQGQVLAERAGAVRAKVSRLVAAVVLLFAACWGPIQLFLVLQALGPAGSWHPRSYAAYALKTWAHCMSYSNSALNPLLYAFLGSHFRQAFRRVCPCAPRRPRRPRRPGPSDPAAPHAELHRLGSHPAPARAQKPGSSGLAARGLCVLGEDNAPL

`N#Cc1c(-c2cccc(NC(=O)CN)c2)cc(-c2ccccc2O)nc1NC(=O)c1cccs1` [Example 12, N-[3-cyano-4-[3-(glycylamino)phenyl]-6-(2-hydroxyphenyl)pyridin-2-yl]thiophene-2-carboxamide dihydrochloride]: the negative-log IC50 (pIC50) in series [1] and in series [2] was at least 5.00 in each case.
As for `CN(C)CCNC(=O)c1cccc(-c2cc(-c3ccc(F)cc3O)nc(NC(=O)c3ccco3)c2C#N)c1.Cl` [Example 309, N-[3-cyano-4-[3-({[2-(dimethylamino)ethyl]amino}carbonyl)phenyl]-6-(4-fluoro-2-hydroxyphenyl)pyridin-2-yl]-2-furamide hydrochloride], the melting point was 200 to 204 °C. In addition, in series [2], the pIC50 is at least 5.00.
The corresponding values for `CCN(CC)CCNC(=O)c1cccc(-c2cc(-c3ccc(F)cc3O)nc(NC(=O)c3ccco3)c2C#N)c1.Cl` [Example 310, N-[3-cyano-4-[3-({[2-(diethylamino)ethyl]amino}carbonyl)phenyl]-6-(4-fluoro-2-hydroxyphenyl)pyridin-2-yl]-2-furamide hydrochloride] are 200 to 204 °C and at least 5.00.
As for `CCN(CC)CC(=O)Nc1cccc(-c2cc(-c3ccc(F)cc3O)nc(NC(=O)c3ccco3)c2C#N)c1.Cl` [Example 315, N-[3-cyano-4-{3-[(N,N-diethylglycyl)amino]phenyl}-6-(4-fluoro-2-hydroxyphenyl)pyridin-2-yl]-2-furamide hydrochloride], the melting point lay within 262 to 263 °C. The negative-log IC50 (pIC50) in series [2] was at least 5.00.
`CCN(C)CCC(=O)Nc1cccc(-c2cc(-c3ccc(F)cc3O)nc(NC(=O)c3ccco3)c2C#N)c1.Cl` [Example 316, N-[3-cyano-4-{3-[(N-ethyl-N-methyl-β-alanyl)amino]phenyl}-6-(4-fluoro-2-hydroxyphenyl)pyridin-2-yl]-2-furamide hydrochloride]: the melting point was 223 to 224 °C. Also, the pIC50 in series [2] is at least 5.00.
For `CCCN(CCC)C(C)CC(=O)Nc1cccc(-c2cc(-c3ccc(F)cc3O)nc(NC(=O)c3ccco3)c2C#N)c1.Cl` (stereo not drawn) [Example 318, N-[3-cyano-4-(3-{[3-(dipropylamino)butanoyl]amino}phenyl)-6-(4-fluoro-2-hydroxyphenyl)pyridin-2-yl]-2-furamide hydrochloride], the melting point fell in the range of 198 to 200 °C. Further, in series [2], the negative-log IC50 (pIC50) was at least 5.00.
`CCC(CC(=O)Nc1cccc(-c2cc(-c3ccc(F)cc3O)nc(NC(=O)c3ccco3)c2C#N)c1)N(CC)CC.Cl` (stereo not drawn) [Example 319, N-[3-cyano-4-(3-{[3-(diethylamino)pentanoyl]amino}phenyl)-6-(4-fluoro-2-hydroxyphenyl)pyridin-2-yl]-2-furamide hydrochloride] had a melting point of 171 to 175 °C. Also, the negative-log IC50 (pIC50) in series [2] is at least 5.00.
The corresponding values for `CCNC(C)CC(=O)Nc1cccc(-c2cc(-c3ccc(F)cc3O)nc(NC(=O)c3ccco3)c2C#N)c1.Cl` (stereo not drawn) [Example 320, N-[3-cyano-4-(3-{[3-(ethylamino)butanoyl]amino}phenyl)-6-(4-fluoro-2-hydroxyphenyl)pyridin-2-yl]-2-furamide hydrochloride] are 249 to 255 °C and at least 5.00.
Compound `CC(C)NC(C)CC(=O)Nc1cccc(-c2cc(-c3ccc(F)cc3O)nc(NC(=O)c3ccco3)c2C#N)c1.Cl` (stereo not drawn) [Example 321, N-[3-cyano-6-(4-fluoro-2-hydroxyphenyl)-4-(3-{[3-(isopropylamino)butanoyl]amino}phenyl)pyridin-2-yl]-2-furamide hydrochloride] displayed a melting point of 197 to 199 °C. Moreover, the pIC50 in series [2] is at least 5.00.
The corresponding values for `CCN1CCCCC1CC(=O)Nc1cccc(-c2cc(-c3ccc(F)cc3O)nc(NC(=O)c3ccco3)c2C#N)c1.Cl` (stereo not drawn) [Example 322, N-[3-cyano-4-(3-{[(1-ethylpiperidin-2-yl)acetyl]amino}phenyl)-6-(4-fluoro-2-hydroxyphenyl)pyridin-2-yl]-2-furamide hydrochloride] are 201 to 203 °C and at least 5.00.
The corresponding values for `Cl.N#Cc1c(-c2cccc(N3CCCNCC3)c2)cc(-c2ccc(F)cc2O)nc1NC(=O)c1ccco1` [Example 326, N-[3-cyano-4-[3-(1,4-diazepan-1-yl)phenyl]-6-(4-fluoro-2-hydroxyphenyl)pyridin-2-yl]-2-furamide hydrochloride] are 254 to 259 °C and at least 5.00.
For `CN1CCN(c2cccc(-c3cc(-c4ccc(F)cc4O)nc(NC(=O)c4ccco4)c3C#N)c2)CC1.Cl` [Example 327, N-{3-cyano-6-(4-fluoro-2-hydroxyphenyl)-4-[3-(4-methylpiperazin-1-yl)phenyl]pyridin-2-yl}-2-furamide hydrochloride], the melting point is 254 to 259 °C. Moreover, the pIC50 in series [2] was at least 5.00.
The corresponding values for `CCN(CC)CCC(=O)Nc1cccc(-c2cc(-c3ccc(F)cc3O)nc(NC(=O)c3ccco3)c2C#N)c1.Cl` [Example 328, N-[3-cyano-4-{3-[(N,N-diethyl-β-alanyl)amino]phenyl}-6-(4-fluoro-2-hydroxyphenyl)pyridin-2-yl]-2-furamide hydrochloride] are 209 to 213 °C and at least 5.00.
As for `Cl.N#Cc1c(-c2cccc(NC(=O)CN)c2)cc(-c2ccc(F)cc2O)nc1NC(=O)c1ccco1` [Example 329, N-{3-cyano-6-(4-fluoro-2-hydroxyphenyl)-4-[3-(glycylamino)phenyl]pyridin-2-yl}-2-furamide hydrochloride], the melting point was in the range of 229 to 236 °C. Moreover, the pIC50 in series [2] was at least 5.00.
The compound `CCN1CCC[C@H]1CC(=O)Nc1cccc(-c2cc(-c3ccc(F)cc3O)nc(NC(=O)c3ccco3)c2C#N)c1.Cl` [Example 336, N-[3-cyano-4-[3-({[(2S)-1-ethylpyrrolidin-2-yl]acetyl}amino)phenyl]-6-(4-fluoro-2-hydroxyphenyl)pyridin-2-yl]-2-furamide hydrochloride] showed a melting point of 182 to 187 °C. In series [2], the negative-log IC50 (pIC50) was at least 5.00.
In turn, `CC(N)CC(=O)Nc1cccc(-c2cc(-c3ccc(F)cc3O)nc(NC(=O)c3ccco3)c2C#N)c1.Cl` (stereo not drawn) [Example 337, N-[4-{3-[(3-aminobutanoyl)amino]phenyl}-3-cyano-6-(4-fluoro-2-hydroxyphenyl)pyridin-2-yl]-2-furamide hydrochloride] registered a melting point of 213 to 215 °C. The negative-log IC50 (pIC50) in series [2] is at least 5.00.
The corresponding values for `CC(CC(=O)Nc1cccc(-c2cc(-c3ccc(F)cc3O)nc(NC(=O)c3ccco3)c2C#N)c1)N(C)C.Cl` (stereo not drawn) [Example 338, N-[3-cyano-4-(3-{[3-(dimethylamino)butanoyl]amino}phenyl)-6-(4-fluoro-2-hydroxyphenyl)pyridin-2-yl]-2-furamide hydrochloride] are 233 to 234 °C and at least 5.00.
The corresponding values for `CCN(CC)C(C)CC(=O)Nc1cccc(-c2cc(-c3ccc(F)cc3O)nc(NC(=O)c3ccco3)c2C#N)c1.Cl` (stereo not drawn) [Example 339, N-[3-cyano-4-(3-{[3-(diethylamino)butanoyl]amino}phenyl)-6-(4-fluoro-2-hydroxyphenyl)pyridin-2-yl]-2-furamide hydrochloride] are 193 to 195 °C and at least 5.00.

By pIC50 is commonly meant the negative decadic logarithm of the IC50, by convention in mol/L. One may read the melting point as the temperature, or range, at which the solid turns liquid.
